Test results as given in patent US20250163119A1, “COMPOUNDS FOR THE TREATMENT OF DIABETES OR OBESITY” (Eli Lilly and Company, priority 2023, published 2025).
Values joined by “and” are separate entries in the source; they are usually repeats but may differ in a detail not shown here. Identical values can stand only once. Like-named read-outs stand apart in the source and are kept apart here. *1 amine or outer side, *2 acyl side, *3 side chain or, on linkers, in order; H or OH if unused. Where a SMILES comes first, the peptide text is derived from it. Side-chain parts run from the residue outwards. [ ]: non-standard residue; d: D form. The star is where a group is joined. C20 diacid = O=C(O)CCCCCCCCCCCCCCCCCCC(=O)*; γGlu = O=C(O)[C@H](CCC(=O)[*:2])N[*:1]; εLys = N[C@@H](CCCCN[*:1])C(=O)[*:2]; αMeL = CC(C)C[C@](C)(N)C(=O)O; AEEA = NCCOCCOCC(=O)O; Aib = CC(C)(N)C(=O)O

Legend:
[1] = biological target: T1, human CRHR1 (Homo sapiens, UniProt P34998); test: Human CRHR1 cAMP assay (HTRF) in HEK293 cells stably expressing human CRHR1; assay type: cell-based; conditions: HEK293 cells overexpressing human CRHR1; relative EC50, maximum 66 nM human UCN1; mean ± SE; read-out: hCRHR1 cAMP EC50 (pM, ± SE)
T1 construct: expressed in transfected cells
T1 sequence (P34998 24-415): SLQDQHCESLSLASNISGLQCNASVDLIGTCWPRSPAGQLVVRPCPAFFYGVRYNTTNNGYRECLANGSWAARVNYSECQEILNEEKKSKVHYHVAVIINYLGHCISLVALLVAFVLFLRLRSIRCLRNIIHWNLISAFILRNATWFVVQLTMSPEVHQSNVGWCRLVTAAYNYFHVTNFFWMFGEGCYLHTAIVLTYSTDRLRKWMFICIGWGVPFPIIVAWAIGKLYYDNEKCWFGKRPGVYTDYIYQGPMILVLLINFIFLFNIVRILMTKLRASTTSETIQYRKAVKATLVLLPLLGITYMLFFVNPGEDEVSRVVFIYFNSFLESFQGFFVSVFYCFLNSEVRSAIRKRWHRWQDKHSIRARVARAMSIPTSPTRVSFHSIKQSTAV
How it was run: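 cAMP (pmol/well) derived from HTRF fluorescence via a standard curve run in each experiment. Cells: HEK293 stably expressing human CRHR1 or CRHR2b; peptides in 1:3 series; CRHR1 1 h 37° C, CRHR2 30 min RT.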

[2] = Pharmacokinetics in Yucatan mini-pigs, single subcutaneous or intravenous dose; assay type: in vivo
Procedure: Plasma concentrations of compounds were determined by LC/MS methods. For each assay, the compound and an internal standard (IS), were extracted from 100% mouse, rat, pig, or monkey plasma (70 μL) using Isopropanol-Methanol. Two distinct layers were formed upon centrifugation with the compound and the IS located in the supernatant layer. An aliquot of the supernatant (150 μL) was transferred to a Waters Sirocco Protein Precipitation Plate. The supernatant was eluted using a positive pressure manifold. The supernatant was mixed with 100-2 Water-Formic acid (400 μL) in a pretreated Sep-Pak tC18 SPE plate and eluted to waste. The peptide and IS were eluted with Acetonitrile-Formic acid (100 μL) in 2 steps (50 μL each step). The elution (40 μL) from SPE plate was mixed with diluent solution (1.875 μL 5× invitrosol and 3.125 μL 1% formic acid in water, 80 μL). A final sample (10 μl) was loaded onto a Xselect CSH C18 IS column (3.5 μm 2.1×20 mm). The column effluent was directed into a Thermo Fisher Scientific Orbitrap (Exploris 240) mass spectrometer for detection and quantitation.
Male Yucatan mini-pigs were administered a single subcutaneous dose or intravenous dose (19 or 99 nmol/kg) of compound in 40 mM Tris-HCl 5% D-mannitol (pH 8) at a volume of 0.01 or 0.05 mL/kg. Blood was collected from each animal at 0.083 (IV only), 0.5, 3, 6, 24, 48, 72, 96, 168, 240, 336, 408, and 504 hours postdose for pharmacokinetic characterization.

[3] = male Yucatan pigs, single subcutaneous dose 99 nmol/kg, individual animal
[4] = male, Yucatan mini-pig, minipig, plasma, iv, 99 nmol/kg, single intravenous dose 99 nmol/kg, mean
[5] = single intravenous dose 99 nmol/kg, male Yucatan pigs, individual animal
[6] = Yucatan mini-pig, minipig, plasma, sc, male Yucatan pigs, single subcutaneous dose 19 nmol/kg, Mean, read-out: AUC0-inf
[7] = Yucatan mini-pig, minipig, plasma, sc, male Yucatan pigs, single subcutaneous dose 19 nmol/kg, Mean, read-out: Cmax
[8] = male Yucatan pigs, single subcutaneous dose 19 nmol/kg, individual animal
[9] = male, Yucatan mini-pig, minipig, plasma, iv, 19 nmol/kg, single intravenous dose 19 nmol/kg, individual animal
[10] = male, Yucatan mini-pig, minipig, plasma, iv, 19 nmol/kg, single intravenous dose 19 nmol/kg, mean
[11] = male, Yucatan mini-pig, minipig, plasma, sc, 19 nmol/kg, single subcutaneous dose 19 nmol/kg, Mean
[12] = male, Yucatan mini-pig, minipig, plasma, sc, 19 nmol/kg, single subcutaneous dose 19 nmol/kg, Mean, read-out: CL/F (converted)
[13] = male, Yucatan mini-pig, minipig, plasma, sc, 19 nmol/kg, single subcutaneous dose 19 nmol/kg, Mean, read-out: Tmax
[14] = male, Yucatan mini-pig, minipig, plasma, sc, 19 nmol/kg, single subcutaneous dose 19 nmol/kg, individual animal
[15] = male, Yucatan mini-pig, minipig, plasma, sc, 19 nmol/kg, single subcutaneous dose 19 nmol/kg, individual animal, read-out: CL/F (converted)
[16] = minipig, plasma, single intravenous dose 19 nmol/kg, male Yucatan pigs, mean, read-out: AUC0-inf
[17] = minipig, plasma, single intravenous dose 19 nmol/kg, male Yucatan pigs, mean, read-out: C0
[18] = single intravenous dose 19 nmol/kg, male Yucatan pigs, individual animal

Molecule: CC[C@H](C)[C@H](NC(C)=O)C(=O)N[C@H](C(=O)N[C@H](C(=O)N[C@@H](CO)C(=O)N[C@@](C)(CC(C)C)C(=O)N[C@@H](CC(=O)O)C(=O)N[C@@H](C(=O)N1CCC[C@H]1C(=O)N[C@H](C(=O)NCC(=O)N[C@@](C)(CC(C)C)C(=O)N[C@@H](CC(C)C)C(=O)N[C@@H](CCC(N)=O)C(=O)N[C@H](C(=O)N[C@@H](CCCCN)C(=O)N[C@@H](CC(C)C)C(=O)N[C@@H](CCC(=O)O)C(=O)N[C@@H](CCC(N)=O)C(=O)N[C@@H](CCC(=O)O)C(=O)N[C@@H](CCCNC(=N)N)C(=O)N[C@@H](C)C(=O)N[C@@H](CCC(=O)O)C(=O)N[C@@H](CCCCN)C(=O)N[C@@H](C)C(=O)N[C@@H](CCCNC(=N)N)C(=O)N[C@@H](CCC(N)=O)C(=O)N[C@@H](CCC(N)=O)C(=O)N[C@@H](C)C(=O)N[C@@H](CCCCNC(=O)COCCOCCNC(=O)COCCOCCNC(=O)CC[C@H](NC(=O)CCCCCCCCCCCCCCCCCCC(=O)O)C(=O)O)C(=O)N[C@@H](CCC(=O)O)C(=O)N[C@@H](CC(N)=O)C(=O)N[C@H](C(=O)N[C@@H](CCC(=O)O)C(=O)N[C@H](C(=O)N[C@@H](CC(C)C)C(=O)N[C@@H](C)C(=O)N[C@@H](CCC(N)=O)C(=O)N[C@H](C(N)=O)C(C)C)[C@@H](C)CC)[C@@H](C)O)[C@@H](C)CC)[C@@H](C)O)C(C)C)[C@@H](C)O)C(C)C [SEQ ID NO: 29, Ac-IVTS αMeL D (D-Val) PTG αMeL LQIKLEQERAEKARQ QAK((2-[2-(2-Amino-ethoxy)-ethoxy]-acetyl)2-γE-CO-(CH2)18-CO2H)ENTEILAQV-NH2] (Ac-IVTS[αMeL]D[dV]PTG[αMeL]LQIKLEQERAEKARQQAK([AEEA-AEEA-γGlu-C20 diacid])ENTEILAQV-NH2)
- EC50 [1]: > 1e+07 pM
- AUC0-inf ([2]; Yucatan mini-pig, minipig, plasma, sc, male Yucatan pigs, single subcutaneous dose 99 nmol/kg, Mean, read-out: AUC0-inf): 76.4 µM·h
- Cmax ([2]; Yucatan mini-pig, minipig, plasma, sc, male Yucatan pigs, single subcutaneous dose 99 nmol/kg, Mean, read-out: Cmax): 259 nM
- AUC0-inf [2, 3]: 128 µM·h and 67.5 µM·h and 33.8 µM·h
- CL/F [2, 3]: 24.7 mL/day/kg and 49.4 mL/day/kg and 85.4 mL/day/kg
- Cmax [2, 3]: 497 nM and 201 nM and 79.6 nM
- T1/2 [2, 3]: 292 h and 185 h
- Tmax [2, 3]: 168 h
- clearance ([2]; male, Yucatan mini-pig, minipig, plasma, iv, 99 nmol/kg, single intravenous dose 99 nmol/kg, individual animal): 7.7 mL/day/kg
- clearance [2, 4]: 8.54 mL/day/kg
- half-life [2, 4]: 166 h
- half-life ([2]; male, Yucatan mini-pig, minipig, plasma, sc, 99 nmol/kg, single subcutaneous dose 99 nmol/kg, Mean): 214 h
- CL/F ([2]; male, Yucatan mini-pig, minipig, plasma, sc, 99 nmol/kg, single subcutaneous dose 99 nmol/kg, Mean, read-out: CL/F (converted)): 53.3 mL/day/kg
- Tmax ([2]; male, Yucatan mini-pig, minipig, plasma, sc, 99 nmol/kg, single subcutaneous dose 99 nmol/kg, Mean, read-out: Tmax): 72 h
- half-life ([2]; male, Yucatan mini-pig, minipig, plasma, sc, 99 nmol/kg, single subcutaneous dose 99 nmol/kg, individual animal): 166 h
- AUC0-inf ([2]; minipig, plasma, single intravenous dose 99 nmol/kg, male Yucatan pigs, mean, read-out: AUC0-inf): 285 µM·h
- C0 ([2]; minipig, plasma, single intravenous dose 99 nmol/kg, male Yucatan pigs, mean, read-out: C0): 2490 nM
- AUC0-inf [2, 5]: 307 µM·h and 220 µM·h and 329 µM·h
- C0 [2, 5]: 2530 nM and 2560 nM and 2380 nM
- CL [2, 5]: 10.8 mL/day/kg and 7.18 mL/day/kg
- T1/2 [2, 5]: 109 h and 126 h and 263 h

Molecule: Ac-GSPSIVTS[αMeL]DVPT[Aib][αMeL]LQKILEQERAEKARQQAK([γGlu-AEEA-εLys-C20 diacid])EAAEILAQV-NH2 [SEQ ID NO: 1, Ac-GSPSIVTS αMeL DVPT Aib αMeL LQKILEQERAEKARQQAK(γE-(2-[2-(2-Amino-ethoxy)-ethoxy]-acetyl)-ϵK-CO-(CH2)18-CO2H)EAAEILAQV-NH2]
- EC50 [1]: > 1e+07 pM
- AUC0-inf [2, 6]: 17.8 µM·h
- Cmax [2, 7]: 147 nM
- AUC0-inf [2, 8]: 22.4 µM·h and 13.1 µM·h
- CL/F [2, 8]: 35 mL/day/kg
- Cmax [2, 8]: 171 nM and 122 nM
- T1/2 [2, 8]: 60.2 h
- clearance [2, 9]: 14 mL/day/kg
- half-life [2, 9]: 87 h
- clearance [2, 10]: 18.1 mL/day/kg
- half-life [2, 10]: 71.5 h
- half-life [2, 11]: 75.9 h
- CL/F [2, 12]: 27.6 mL/day/kg
- Tmax [2, 13]: 6 h
- half-life [2, 14]: 91.6 h
- CL/F [2, 15]: 20.4 mL/day/kg
- Tmax ([2]; male, Yucatan mini-pig, minipig, plasma, sc, 19 nmol/kg, single subcutaneous dose 19 nmol/kg, individual animal, read-out: Tmax): 6 h
- AUC0-inf [2, 16]: 26.2 µM·h
- C0 [2, 17]: 619 nM
- AUC0-inf [2, 18]: 32.1 µM·h and 20.2 µM·h
- C0 [2, 18]: 591 nM and 646 nM
- CL [2, 18]: 22.2 mL/day/kg
- T1/2 [2, 18]: 55.9 h

Molecule: Ac-GSPSIVTS[αMeL]DVPT[Aib][αMeL]LQKLLEQERAEKARQQAK([γGlu-AEEA-εLys-C20 diacid])EAAEILAQV-NH2 [SEQ ID NO: 2, Ac-GSPSIVTS αMeL DVPT Aib αMeL LQKLLEQERAEKARQQAK(γE-(2-[2-(2-Amino-ethoxy)-ethoxy]-acetyl)-ϵK-CO-(CH2)18-CO2H)EAAEILAQV-NH2]
- EC50 [1]: > 1e+07 pM
- AUC0-inf [2, 6]: 18.1 µM·h
- Cmax [2, 7]: 107 nM
- AUC0-inf [2, 8]: 24.4 µM·h and 11.7 µM·h
- CL/F [2, 8]: 18.9 mL/day/kg and 39.1 mL/day/kg
- Cmax [2, 8]: 154 nM and 60.4 nM
- T1/2 [2, 8]: 90.8 h
- Tmax [2, 8]: 6 h and 96 h
- clearance [2, 9]: 15.6 mL/day/kg
- half-life [2, 9]: 95.4 h
- clearance [2, 10]: 14.6 mL/day/kg
- half-life [2, 10]: 85.3 h
- half-life [2, 11]: 80.8 h
- CL/F [2, 12]: 29 mL/day/kg
- Tmax [2, 13]: 51 h
- half-life [2, 14]: 70.7 h
- AUC0-inf [2, 16]: 30.9 µM·h
- C0 [2, 17]: 694 nM
- AUC0-inf [2, 18]: 28.9 µM·h and 32.8 µM·h
- C0 [2, 18]: 809 nM and 578 nM
- CL [2, 18]: 13.7 mL/day/kg
- T1/2 [2, 18]: 75.1 h

Molecule: Ac-PPPIVTS[αMeL]DVPT[Aib][αMeL]LQKLLEQERAEKARQQAK([γGlu-AEEA-εLys-C20 diacid])EAAEILAQV-NH2 [SEQ ID NO: 48, Ac-PPPIVTS αMeL DVPT Aib αMeL LQKLLEQERAEKARQQAK(γE-(2-[2-(2-Amino-ethoxy)-ethoxy]-acetyl)-ϵK-CO-(CH2)18-CO2H)EAAEILAQV-NH2]
- EC50 [1]: > 1e+07 pM
- AUC0-inf [2, 6]: 32.5 µM·h
- Cmax [2, 7]: 149 nM
- AUC0-inf [2, 8]: 29.3 µM·h and 35.6 µM·h
- CL/F [2, 8]: 13.6 mL/day/kg
- Cmax [2, 8]: 140 nM and 157 nM
- T1/2 [2, 8]: 66.8 h
- Tmax [2, 8]: 48 h and 6.0 h
- clearance [2, 9]: 13.9 mL/day/kg
- half-life [2, 9]: 86.7 h
- clearance [2, 10]: 12.5 mL/day/kg
- half-life [2, 10]: 88 h
- half-life [2, 11]: 68.5 h
- CL/F [2, 12]: 14.6 mL/day/kg
- Tmax [2, 13]: 27 h
- half-life [2, 14]: 70.1 h
- CL/F [2, 15]: 15.7 mL/day/kg
- AUC0-inf [2, 16]: 36.9 µM·h
- C0 [2, 17]: 943 nM
- AUC0-inf [2, 18]: 32.5 µM·h and 41.2 µM·h
- C0 [2, 18]: 899 nM and 987 nM
- CL [2, 18]: 11 mL/day/kg
- T1/2 [2, 18]: 89.2 h
